Data on six compounds can be found in paper doi:10.1101/2023.11.24.568596v1 (biorxiv, 2023).

Among the targets are CaMK1d (Homo sapiens, UniProt Q8IU85); PIM3 (Homo sapiens, UniProt Q86V86); Erk3 (Homo sapiens, UniProt Q16659).
Conditions in all cases: binder
The next assay deals with T1, MAP2K6 (Homo sapiens, UniProt P52564).
T1 sequence (P52564 1-334): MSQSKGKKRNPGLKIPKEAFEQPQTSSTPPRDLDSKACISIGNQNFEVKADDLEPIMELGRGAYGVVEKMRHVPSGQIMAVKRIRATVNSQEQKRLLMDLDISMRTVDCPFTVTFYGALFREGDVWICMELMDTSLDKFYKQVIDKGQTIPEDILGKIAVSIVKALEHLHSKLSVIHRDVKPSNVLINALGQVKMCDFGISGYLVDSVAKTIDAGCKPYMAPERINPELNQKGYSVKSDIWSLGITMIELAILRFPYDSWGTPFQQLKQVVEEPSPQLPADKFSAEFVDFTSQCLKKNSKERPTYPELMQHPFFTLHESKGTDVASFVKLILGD

Another assay deals with T2, GAK (Homo sapiens, UniProt O14976).
T2 sequence (O14976 1-1311): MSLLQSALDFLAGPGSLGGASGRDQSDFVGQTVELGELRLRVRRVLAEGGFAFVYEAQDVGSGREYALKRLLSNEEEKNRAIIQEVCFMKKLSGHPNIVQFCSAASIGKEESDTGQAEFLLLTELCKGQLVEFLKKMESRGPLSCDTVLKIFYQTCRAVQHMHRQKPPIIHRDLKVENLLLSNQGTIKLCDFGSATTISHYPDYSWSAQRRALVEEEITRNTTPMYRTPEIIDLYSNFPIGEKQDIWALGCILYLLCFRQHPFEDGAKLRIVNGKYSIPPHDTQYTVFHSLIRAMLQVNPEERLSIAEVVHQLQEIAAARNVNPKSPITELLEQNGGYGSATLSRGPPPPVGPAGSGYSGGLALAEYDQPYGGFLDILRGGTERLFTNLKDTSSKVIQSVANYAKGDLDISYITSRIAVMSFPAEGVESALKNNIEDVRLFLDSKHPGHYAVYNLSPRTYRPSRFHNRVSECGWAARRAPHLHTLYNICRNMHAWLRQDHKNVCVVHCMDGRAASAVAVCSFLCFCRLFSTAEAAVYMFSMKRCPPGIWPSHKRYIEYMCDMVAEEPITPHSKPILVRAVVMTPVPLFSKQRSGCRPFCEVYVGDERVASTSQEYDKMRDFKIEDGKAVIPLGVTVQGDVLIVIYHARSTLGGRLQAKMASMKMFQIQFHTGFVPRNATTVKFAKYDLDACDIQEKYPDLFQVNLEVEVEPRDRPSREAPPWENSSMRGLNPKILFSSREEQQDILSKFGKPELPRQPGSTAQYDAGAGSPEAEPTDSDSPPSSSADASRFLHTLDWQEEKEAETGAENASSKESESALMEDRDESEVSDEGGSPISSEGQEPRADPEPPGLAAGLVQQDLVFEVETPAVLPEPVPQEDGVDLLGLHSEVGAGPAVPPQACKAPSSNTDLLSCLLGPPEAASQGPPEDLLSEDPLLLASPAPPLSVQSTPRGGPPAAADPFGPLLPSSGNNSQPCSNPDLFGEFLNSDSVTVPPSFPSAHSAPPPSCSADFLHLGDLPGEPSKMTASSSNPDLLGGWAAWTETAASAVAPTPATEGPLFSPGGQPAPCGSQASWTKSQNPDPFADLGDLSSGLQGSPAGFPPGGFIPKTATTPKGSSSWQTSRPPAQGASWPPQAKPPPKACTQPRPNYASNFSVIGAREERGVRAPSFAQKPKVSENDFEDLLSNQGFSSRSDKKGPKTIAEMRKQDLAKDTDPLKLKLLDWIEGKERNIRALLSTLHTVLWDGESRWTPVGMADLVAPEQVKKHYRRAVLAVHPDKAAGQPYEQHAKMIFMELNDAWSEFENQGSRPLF

Sequence of Erk3 (Q16659 whole entry): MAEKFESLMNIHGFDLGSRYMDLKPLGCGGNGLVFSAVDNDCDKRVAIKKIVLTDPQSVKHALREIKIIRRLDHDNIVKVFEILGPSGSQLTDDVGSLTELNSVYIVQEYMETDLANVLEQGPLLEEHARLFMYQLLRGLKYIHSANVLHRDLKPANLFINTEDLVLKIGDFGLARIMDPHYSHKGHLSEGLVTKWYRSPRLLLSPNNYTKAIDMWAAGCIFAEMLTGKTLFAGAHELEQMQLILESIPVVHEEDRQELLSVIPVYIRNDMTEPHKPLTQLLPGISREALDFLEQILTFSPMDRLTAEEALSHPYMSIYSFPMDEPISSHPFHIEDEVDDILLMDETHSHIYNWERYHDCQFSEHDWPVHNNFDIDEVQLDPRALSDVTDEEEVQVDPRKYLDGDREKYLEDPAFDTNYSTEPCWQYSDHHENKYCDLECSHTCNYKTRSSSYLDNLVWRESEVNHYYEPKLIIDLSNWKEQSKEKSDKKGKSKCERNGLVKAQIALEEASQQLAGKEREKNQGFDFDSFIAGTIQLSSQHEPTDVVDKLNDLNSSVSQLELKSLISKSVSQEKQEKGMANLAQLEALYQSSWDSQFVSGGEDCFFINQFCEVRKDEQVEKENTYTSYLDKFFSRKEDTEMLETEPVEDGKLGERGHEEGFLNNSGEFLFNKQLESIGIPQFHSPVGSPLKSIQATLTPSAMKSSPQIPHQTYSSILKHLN
Sequence of CaMK1d (Q8IU85 whole entry): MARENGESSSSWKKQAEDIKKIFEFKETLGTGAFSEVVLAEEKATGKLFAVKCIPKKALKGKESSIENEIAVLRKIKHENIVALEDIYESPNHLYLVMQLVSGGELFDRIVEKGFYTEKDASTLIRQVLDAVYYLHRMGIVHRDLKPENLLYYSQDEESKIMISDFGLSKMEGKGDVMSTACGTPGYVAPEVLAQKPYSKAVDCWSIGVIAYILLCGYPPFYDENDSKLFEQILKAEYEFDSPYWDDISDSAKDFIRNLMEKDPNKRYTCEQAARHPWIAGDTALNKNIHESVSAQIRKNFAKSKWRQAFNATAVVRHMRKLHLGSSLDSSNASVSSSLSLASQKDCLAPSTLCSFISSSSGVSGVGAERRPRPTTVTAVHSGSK

For the compound `Cc1cccc(-c2ccc(-c3cc4cnc(NCCCN5CCNCC5)nc4n(CCCCN)c3=O)c(Cl)c2)n1` [compound 29, 8-(4-Aminobutyl)-6-(2-chloro-4-(6-methylpyridin-2-yl)phenyl)-2-((3-(piperazin-1-yl)propyl)amino)pyrido[2,3-d]pyrimidin-7(8H)-one], the “ΔTm 29” value was determined as 1.9 °C on MAP2K6; 3.7 °C at CaMK1d; 0.0 °C on PIM3; 4.2 °C on GAK; 0.3 °C at Erk3.
On to `Cc1cccc(-c2ccc(-c3cc4cnc(NCCCN5CCCC5=O)nc4n(CCCCN)c3=O)c(Cl)c2)n1` [compound 27, MR30], for which the “ΔTm MR30 (27)” value at MAP2K6 was 4.1 °C; at CaMK1d, 2.4 °C; at PIM3, -2.7 °C; at GAK it was 4.3 °C; on Erk3, 0.5 °C.
Regarding `Cc1cccc(-c2ccc(-c3cc4cnc(Nc5ccc(O)cc5)nc4n(CCCCN)c3=O)c(Cl)c2)n1` [compound 31, 8-(4-Aminobutyl)-6-(2-chloro-4-(6-methylpyridin-2-yl)phenyl)-2-((4-hydroxyphenyl)amino) pyrido[2,3-d]pyrimidin-7(8H)-one], the “ΔTm 31” value on MAP2K6 was found to be 9.4 °C; on CaMK1d, 5.6 °C; at PIM3, 4.5 °C; on GAK, 13.3 °C; on Erk3 it was 1.2 °C.
With `Cc1cccc(-c2ccc(-c3cc4cnc(Nc5ccc(CCCO)cc5)nc4n(CCCCN)c3=O)c(Cl)c2)n1` [compound 30, 8-(4-Aminobutyl)-6-(2-chloro-4-(6-methylpyridin-2-yl)phenyl)-2-((4-(3-hydroxypropyl)phenyl)amino)pyrido[2,3-d]pyrimidin-7(8H)-one], the “ΔTm 30” value is 9.4 °C on MAP2K6; 6.8 °C at CaMK1d; -0.8 °C at PIM3; 13.2 °C at GAK; 1.1 °C at Erk3.
On to `Cc1cccc(-c2ccc(-c3cc4cnc(Nc5cc(C(F)(F)F)ccc5C)nc4n(CCCCN)c3=O)c(Cl)c2)n1` [compound 28, 8-(4-Aminobutyl)-6-(2-chloro-4-(6-methylpyridin-2-yl)phenyl)-2-((2-methyl-5-(trifluoromethyl)phenyl)amino)pyrido[2,3-d]pyrimidin-7(8H)-one], for which the “ΔTm 28” value at MAP2K6 was 7.5 °C; on CaMK1d, 4.8 °C; on PIM3, 0.5 °C; at GAK, 9.4 °C; at Erk3 it was 0.7 °C.
For `Cc1cccc(-c2ccc(-c3cc4cnc(Nc5ccc(C)c(O)c5)nc4n(CCCCN)c3=O)c(Cl)c2)n1` [compound 32, 8-(4-Aminobutyl)-6-(2-chloro-4-(6-methylpyridin-2-yl)phenyl)-2-((3-hydroxy-4-methylphenyl)amino)pyrido[2,3-d]pyrimidin-7(8H)-one], the “ΔTm 32” value came to 8.9 °C on MAP2K6; 6.0 °C on CaMK1d; 1.5 °C on PIM3; 13.3 °C on GAK; 1.0 °C on Erk3.
